Columns and labels:
[1] = test system: rat air pouch model of crystal-induced arthropathy (MSU); test: Rat air pouch model, Example 6 (Compounds 2, 3 and 4); format: in vivo
Description: (§1) Sodium hydroxide (40 g, Fisher Scientific) was dissolved in de-ionized water (100 mL, dH2O) to provide a 10N solution. Uric acid (16 g, Sigma) was added to de-ionized water (3400 mL) containing sodium hydroxide solution (11.8 mL, 10N) and heated to 60° C. with constant stirring. […] The resulting clear solution was cooled to 4-8° C., resulting in the formation of crystals, which were isolated by filtration, washed three times with de-ionized wa[…]) and dried at 37° C. The dried mono sodium urate crystals were sifted into an air-tight container for storage. […] Methylcellulose (0.4 g, Sigma) was dissolved in de-ionized water (100 mL) to provide a 0.4% solution used as vehicle. […] Test compounds were suspended in vehicle to provide the desired concentrations, and diluted accordingly. […] Male Sprague-Dawley rats (Charles River Laboratories, 160-180 g) were received, individually examined and housed in cages of five rats each. The animals were in apparent good health with no clinical signs of disease or distress. The rats were placed in quarantine with daily inspections, ear notched for identification purposes and shaved at the nape of the neck. The rats were anesthetized (isoflurane), and the nape of the neck was cleansed with 70% isopropanol (Butler Animal Health Supply) followed by povidone-iodine solution (Ricca Chemical Co.). Sterile air (30 mL, 0.2 μm, Millipore) was injected subcutaneously using a 23 G×11⁄2 inch needle fixed to a 30 mL syringe. The rats were returned to routine housing with no adverse reactions observed. The rats were anesthetized (isoflurane), and the nape of the neck was cleansed with 70% isopropanol (Butler Animal Health Supply) followed by povidone-iodine solution (Ricca Chemical Co.). Sterile air (15 mL, 0.11 μm, Millipore) was injected subcutaneously using a 23 G×11⁄2 inch needle fixed to a 20 mL syringe. The rats were returned to routine housing with no adverse reactions observed. The rats were weighed and sorted into treatment groups based on average body weight. As appropriate, the rats were dosed orally with test compound or vehicle (saline alone). […] Thirty minutes after SC injection or two hours after PO dosing, MSU (15 mL) was injected into the air pouch using an 18 G×2 inch needle fitted to a 20 mL syringe. Control group was injected with 15 mL sterile saline (vehicle). The injection sites were closed (collodion, Macron) and the rats returned to their cages with no adverse effects observed. Four hours after MSU/saline injection, the rats were anesthetized and heparinized saline (5 mL, 10 U/mL) was injected into the air pouch. […] An aliquot of the exudate was transferred to green Eppendorf tubes for total white blood cell (WBC) measurement. After allowing the MSU crystals to settle out for ten minutes, an aliquot of the exudate was transferred to heparinized microtainer tubes (Becton Dickinson) for differential white blood cell counts. The remainder of the exudate was centrifuged and an aliquot of the supernatants was dispensed to labeled clear Eppendorf tubes and stored at -80° C. The rats were exsanguinated into pre-chilled serum separator tubes, processed to serum, and 0.5 mL aliquot was stored at -80° C. in labeled Eppendorf tubes. […] [table]

[2] = test system: rat air pouch model of crystal-induced arthropathy (MSU); test: Rat air pouch model, Example 7 (Compounds 3 and 4 in combination with colchicine); format: in vivo
Description: as §1

[3] = biological target: T1, CXCR-2 (Homo sapiens, UniProt P25025); details: cited from earlier work
T1 sequence (P25025 1-360): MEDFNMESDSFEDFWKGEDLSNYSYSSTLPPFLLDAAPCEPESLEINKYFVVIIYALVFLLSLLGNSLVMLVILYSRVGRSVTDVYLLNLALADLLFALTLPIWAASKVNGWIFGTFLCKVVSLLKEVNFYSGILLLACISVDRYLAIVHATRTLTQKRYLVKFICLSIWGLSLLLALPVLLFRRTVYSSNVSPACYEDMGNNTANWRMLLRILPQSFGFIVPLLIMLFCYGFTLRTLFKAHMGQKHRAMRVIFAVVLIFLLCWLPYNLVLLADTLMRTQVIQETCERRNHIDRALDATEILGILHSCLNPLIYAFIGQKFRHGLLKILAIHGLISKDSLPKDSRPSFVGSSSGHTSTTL

[4] = 3.0 umol/kg PO + Colchicine 0.1 mpk SC, Group 10
[5] = 1 umol/kg PO + Colchicine 0.1 mpk SC, Group 9

COc1cc2c(c(OC)c1OC)-c1ccc(OC)c(=O)cc1[C@@H](NC(C)=O)CC2 [Colchicine, COLCHICINE, reference compound]
Avg Exudate Vol ([1]; 1 mpk SC, Group 4): 5.8 mL | Avg Total WBC ([1]; 1 mpk SC, Group 4): 17 ×10^6 | Neutrophils ([1]; 1 mpk SC, Group 4): 9.9 ×10^6 | Avg Exudate Vol ([2]; 0.1 mpk SC, Group 3): 12 mL | Avg Total WBC ([2]; 0.1 mpk SC, Group 3): 240 ×10^6 | Neutrophils ([2]; 0.1 mpk SC, Group 3): 205 ×10^6 | Avg Exudate Vol ([2]; 1.0 mpk SC, Group 4): 6 mL | Avg Total WBC ([2]; 1.0 mpk SC, Group 4): 22 ×10^6 | Neutrophils ([2]; 1.0 mpk SC, Group 4): 10.8 ×10^6

CC[C@@H](Nc1c(Nc2cccc(C(=O)N(C)C)c2O)c(=O)c1=O)c1ccc(C)o1 [Compound 2, (R)-2-hydroxy-N,N-dimethyl-3-((2-((1-(5-methylfuran-2-yl)propyl)amino)-3,4-dioxocyclobut-1-en-1-yl)amino)benzamide]
inhibit CXCR-2 [3]: shown to inhibit CXCR-2 | Avg Exudate Vol ([1]; 3 mpk PO, Group 3): 8.4 mL | Avg Total WBC ([1]; 3 mpk PO, Group 3): 22 ×10^6 | Neutrophils ([1]; 3 mpk PO, Group 3): 11.8 ×10^6

C[C@@H](Oc1cc(NS(=O)(=O)N2CCC2)nc(SCc2cccc(F)c2F)n1)[C@@H](O)CO [Compound 3, N-(2-((2,3-difluorobenzyl)thio)-6-(((2R,3S)-3,4-dihydroxybutan-2-yl)oxy)pyrimidin-4-yl)azetidine-1-sulfonamide]
inhibit CXCR-2 [3]: shown to inhibit CXCR-2 | Avg Exudate Vol ([1]; 0.3 umol/kg PO, Group 5): 10.7 mL | Avg Total WBC ([1]; 0.3 umol/kg PO, Group 5): 180 ×10^6 | Neutrophils ([1]; 0.3 umol/kg PO, Group 5): 155 ×10^6 | Avg Exudate Vol ([1]; 3.0 umol/kg PO, Group 6): 10 mL | Avg Total WBC ([1]; 3.0 umol/kg PO, Group 6): 190 ×10^6 | Neutrophils ([1]; 3.0 umol/kg PO, Group 6): 121 ×10^6 | Avg Exudate Vol ([1]; 30 umol/kg PO, Groups 7, 9): 7 mL | Avg Total WBC ([1]; 30 umol/kg PO, Groups 7, 9): 96 ×10^6 | Neutrophils ([1]; 30 umol/kg PO, Groups 7, 9): 44.6 ×10^6 | Avg Exudate Vol [2, 4]: 7.8 mL | Avg Total WBC [2, 4]: 120 ×10^6 | Neutrophils [2, 4]: 159 ×10^6 | Avg Exudate Vol ([2]; 3 umol/kg PO, Group 5): 11.1 mL | Avg Total WBC ([2]; 3 umol/kg PO, Group 5): 180 ×10^6 | Neutrophils ([2]; 3 umol/kg PO, Group 5): 133 ×10^6 | Avg Exudate Vol ([2]; 30 umol/kg PO, Groups 6, 8): 7.4 mL | Avg Total WBC ([2]; 30 umol/kg PO, Groups 6, 8): 110 ×10^6 | Neutrophils ([2]; 30 umol/kg PO, Groups 6, 8): 65.2 ×10^6

CC1CN(S(=O)(=O)Nc2cc(O[C@H](C)[C@@H](O)CO)nc(SCc3ccc(F)cc3)n2)C1 [Compound 4, N-(6-(((2R,3S)-3,4-dihydroxybutan-2-yl)oxy)-2-((4-fluorobenzyl)thio)pyrimidin-4-yl)-3-methylazetidine-1-sulfonamide]
inhibit CXCR-2 [3]: shown to inhibit CXCR-2 | Avg Exudate Vol ([1]; 1.0 umol/kg PO, Group 8): 10 mL | Avg Total WBC ([1]; 1.0 umol/kg PO, Group 8): 270 ×10^6 | Neutrophils ([1]; 1.0 umol/kg PO, Group 8): 165 ×10^6 | Avg Exudate Vol ([1]; 30 umol/kg PO, Groups 7, 9): 7 mL | Avg Total WBC ([1]; 30 umol/kg PO, Groups 7, 9): 140 ×10^6 | Neutrophils ([1]; 30 umol/kg PO, Groups 7, 9): 95.4 ×10^6 | Avg Exudate Vol ([1]; 100 umol/kg PO, Group 10): 6.5 mL | Avg Total WBC ([1]; 100 umol/kg PO, Group 10): 76 ×10^6 | Neutrophils ([1]; 100 umol/kg PO, Group 10): 48.6 ×10^6 | Avg Exudate Vol [2, 5]: 10.3 mL | Avg Total WBC [2, 5]: 210 ×10^6 | Neutrophils [2, 5]: 179 ×10^6 | Avg Exudate Vol ([2]; 1 umol/kg PO, Group 7): 11.8 mL | Avg Total WBC ([2]; 1 umol/kg PO, Group 7): 160 ×10^6 | Neutrophils ([2]; 1 umol/kg PO, Group 7): 121 ×10^6 | Avg Exudate Vol ([2]; 30 umol/kg PO, Groups 6, 8): 8.1 mL | Avg Total WBC ([2]; 30 umol/kg PO, Groups 6, 8): 100 ×10^6 | Neutrophils ([2]; 30 umol/kg PO, Groups 6, 8): 69.6 ×10^6
